Assay [1] deals with Vaccinia virus. Kind of assay: Antiviral activity against Vaccinia virus LIVP harboring GFP infected in African green monkey CV1 cells assessed as GFP expression at 10 uM preincubated for 4 hrs with cells followed by viral infection measured after 24 hrs by flow cytometric analysis relative to control. Format: functional, Orthopoxvirus vaccinia.
In assay [2] the test system is Vaccinia virus. Kind of assay: Antiviral activity against Vaccinia virus LIVP harboring GFP infected in African green monkey CV1 cells assessed as inhibition of GFP expression at 30 to 50 uM preincubated for 4 hrs with cells followed by viral infection measured after 24 hrs by flow cytometric analysis relative to control. It counts as functional, Orthopoxvirus vaccinia. (A flow cytometer gives signals particle by particle.)

Assay [3] relates to Vaccinia virus. Kind of assay: Antiviral activity against Vaccinia virus LIVP harboring GFP infected in African green monkey CV1 cells assessed as virus titer at 10 uM preincubated with cells for 4 hrs followed by viral infection measured after 48 hrs by gentian violet staining-based microscopic analysis (reference value: 3.3 +/- 0.1 log10PFU/ml). It counts as functional, Orthopoxvirus vaccinia.

The test system of assay [4] is Vaccinia virus. Kind of assay: Antiviral activity against Vaccinia virus LIVP harboring GFP infected in African green monkey CV1 cells assessed as virus titer at 30 uM preincubated with cells for 4 hrs followed by viral infection measured after 48 hrs by gentian violet staining-based microscopic analysis (reference value: 3.3 +/- 0.1 log10PFU/ml). It counts as functional, Orthopoxvirus vaccinia.

For assay [5], the system named is Vaccinia virus. Kind of assay: Antiviral activity against Vaccinia virus LIVP harboring GFP infected in African green monkey CV1 cells assessed as virus titer at 1 uM preincubated with cells for 4 hrs followed by viral infection measured after 48 hrs by gentian violet staining-based microscopic analysis (reference value: 3.3 +/- 0.1 log10PFU/ml). It counts as functional, Orthopoxvirus vaccinia.

The test system of assay [6] is Vaccinia virus. Kind of assay: Antiviral activity against Vaccinia virus LIVP harboring GFP infected in African green monkey CV1 cells assessed as virus titer preincubated with cells for 4 hrs followed by viral infection measured after 48 hrs by gentian violet staining-based microscopic analysis. It counts as functional. The conditions noted are these: Orthopoxvirus vaccinia, CV-1.

Assay [7] concerns Vaccinia virus. Kind of assay: Antiviral activity against Vaccinia virus LIVP harboring GFP infected in African green monkey CV1 cells assessed as virus titer at 50 uM preincubated with cells for 4 hrs followed by viral infection measured after 48 hrs by gentian violet staining-based microscopic analysis (reference value: 3.3 +/- 0.1 log10PFU/ml). Format: functional, Orthopoxvirus vaccinia.

The subject of assay [8] is Vaccinia virus. Kind of assay: Antiviral activity against Vaccinia virus LIVP harboring GFP infected in African green monkey CV1 cells assessed as virus titer at 5 uM preincubated with cells for 4 hrs followed by viral infection measured after 48 hrs by gentian violet staining-based microscopic analysis (reference value: 3.3 +/- 0.1 log10PFU/ml). It counts as functional, Orthopoxvirus vaccinia.

Consider `O=C(CN1CCCC1)NN1C(=O)c2cccc3cccc(c23)C1=O`, for which the Activity in the assay with Vaccinia virus [1] is on record as 111%. Take `c1ccc2nc3c(nc2c1)c1ccccc1n3CCNCCCN1CCOCC1`: the “fold change (FC)” value in the assay on Vaccinia virus [2] is listed as 8 - 10. In addition, the Activity in the assay on Vaccinia virus [3] is given as 3.3 log10PFU; in the assay on Vaccinia virus [4] it was 2.6 log10PFU; in the assay on Vaccinia virus [5], 3.6 log10PFU; with Vaccinia virus [1], 48%. Besides, the IC50 (in general, the concentration needed to halve the response being measured) with Vaccinia virus [6] amounted to 19 µM. As to `O=C(Cn1c2ccccc2c2nc3ccccc3nc21)OCCN1CCCCC1`, in the assay on Vaccinia virus [1], the Activity worked out at 71%. `CN(C)CCCNCCn1c2ccccc2c2nc3ccccc3nc21`: the “fold change (FC)” value in the assay on Vaccinia virus [2] is given as 8 - 10. In addition, the Activity in the assay on Vaccinia virus [3] is listed as 3.3 log10PFU; in the assay on Vaccinia virus [4], 2.7 log10PFU; in the assay with Vaccinia virus [5] it was 3.5 log10PFU; in the assay with Vaccinia virus [1], 45%. In addition, in the assay on Vaccinia virus [6], the IC50 amounted to 22 µM. In the case of `CC1CCN(CC(=O)NN2C(=O)c3cccc4cccc(c34)C2=O)CC1`, the Activity in the assay with Vaccinia virus [1] was determined as 125%. For `CN1CCN(CCN2C(=O)c3cccc4cccc(c34)C2=O)CC1`, the Activity with Vaccinia virus [1] stood at 77%.

For `CN(CCO)CCN1C(=O)c2cccc3cccc(c23)C1=O`, the Activity in the assay on Vaccinia virus [1] came out at 83%.

As to `CN(C)CCOC(=O)CCCn1c2ccccc2c2nc3ccccc3nc21`, in the assay on Vaccinia virus [1], the Activity is reported as 125%. Consider `CN(C)CCCNC(=O)Cn1c2ccccc2c2nc3ccccc3nc21`, for which the “fold change (FC)” value with Vaccinia virus [2] was 8 - 10. In addition, the Activity in the assay with Vaccinia virus [7] worked out at 2.5 log10PFU; in the assay with Vaccinia virus [3] it was 2.8 log10PFU; in the assay on Vaccinia virus [5], 3.4 log10PFU; with Vaccinia virus [1] it was 42%. The IC50 in the assay on Vaccinia virus [6] was 10 µM. As to `O=C(CCCn1c2ccccc2c2nc3ccccc3nc21)NCCN1CCCCC1`, in the assay on Vaccinia virus [1], the Activity turned out to be 100%. Regarding `O=C(CN1CCCCCC1)NN1C(=O)c2cccc3cccc(c23)C1=O`, in the assay with Vaccinia virus [1], the Activity is reported as 111%. For the compound `CCN(CC)CCCC(C)N1C(=O)c2cccc3cccc(c23)C1=O` (centres undefined), the Activity in the assay on Vaccinia virus [1] amounted to 111%. Turning to `CCN(CC)CCNC(=O)CCCn1c2ccccc2c2nc3ccccc3nc21`, the Activity in the assay with Vaccinia virus [1] came out at 91%. The same measure, in the same setting: under `CN(C)CCn1c2ccccc2c2nc3ccccc3nc21` stands 67%. The same measure, in the same setting: under `CCCCN(C)CCn1c2ccccc2c2nc3ccccc3nc21` stands 77%; under `CCN(CCO)CCN1C(=O)c2cccc3cccc(c23)C1=O`, 71%. On the same count and under the same terms, under `CC(O)N(C)CCn1c2ccccc2c2nc3ccccc3nc21` (centres undefined) stands 91%. In the case of `CN(C)CCCNC(=O)CCCn1c2ccccc2c2nc3ccccc3nc21`, the Activity in the assay on Vaccinia virus [1] was determined as 111%.

On to `O=C(CCCn1c2ccccc2c2nc3ccccc3nc21)NCCN1CCOCC1`, for which the Activity in the assay on Vaccinia virus [1] is 111%. On to `CN1CCN(CC(=O)NN2C(=O)c3cccc4cccc(c34)C2=O)CC1`, for which, in the assay with Vaccinia virus [1], the Activity amounted to 48%. As for `CCN(CC)CCCNC(=O)Cn1c2ccccc2c2nc3ccccc3nc21`, the Activity in the assay on Vaccinia virus [1] amounted to 83%. On to `COC(=O)CN(C)CCCN1C(=O)c2cccc3cccc(c23)C1=O`, for which the Activity with Vaccinia virus [1] stood at 83%. As to `CCCCN(CCO)CCN1C(=O)c2cccc3cccc(c23)C1=O`, the Activity with Vaccinia virus [1] is recorded as 83%. As to `CCN(CC)CCCNCCn1c2ccccc2c2nc3ccccc3nc21`, the Activity in the assay with Vaccinia virus [8] is 2.8 log10PFU; with Vaccinia virus [3], 2.6 log10PFU; in the assay with Vaccinia virus [5] it was 2.8 log10PFU; with Vaccinia virus [1], 28%. Moreover, the half-maximal inhibitory concentration (IC50) in the assay with Vaccinia virus [6] is below 1 µM. With `CCN(CC)CCn1c2ccc(OC)cc2c2nc3ccccc3nc21`, the Activity in the assay on Vaccinia virus [1] is 91%. On the same count and under the same terms, under `O=C(CCCn1c2ccccc2c2nc3ccccc3nc21)NCCCN1CCOCC1` stands 111%. `O=C(CCCn1c2ccccc2c2nc3ccccc3nc21)OCCN1CCOCC1`: the Activity with Vaccinia virus [1] stood at 111%. Same read-out and setting: the result for `CN(C)CCNCCn1c2ccccc2c2nc3ccccc3nc21` reads 77%. Consider `c1ccc2nc3c(nc2c1)c1ccccc1n3CCNCCN1CCCCC1`, for which, in the assay with Vaccinia virus [1], the Activity is 71%.

As for `O=C(Cn1c2ccccc2c2nc3ccccc3nc21)NCCN1CCOCC1`, the Activity in the assay with Vaccinia virus [1] was 125%. Still for that read-out and setting: the result for `Cc1ccc2c(c1)c1nc3ccccc3nc1n2CCN1CCN(C)CC1` reads 111%. As to `COc1ccc2c(c1)c1nc3ccccc3nc1n2CCN1CCCCC1`, the “fold change (FC)” value in the assay on Vaccinia virus [2] was 8 - 10. Also, the Activity in the assay on Vaccinia virus [7] was 2.4 log10PFU; in the assay with Vaccinia virus [3], 2.8 log10PFU; in the assay on Vaccinia virus [5], 3.1 log10PFU; in the assay with Vaccinia virus [1] it was 23%. Further, the IC50 with Vaccinia virus [6] amounted to 5 µM.

Regarding `CCN(CC)CCNC(=O)Cn1c2ccccc2c2nc3ccccc3nc21`, the Activity in the assay on Vaccinia virus [1] is 67%. As to `CN(C)CCNC(=O)CCCn1c2ccccc2c2nc3ccccc3nc21`, in the assay on Vaccinia virus [1], the Activity stood at 100%. Same read-out and setting: under `CN1CCN(CCn2c3ccccc3c3nc4ccccc4nc32)CC1` stands 91%. On the same count and under the same terms, under `CN(C)CCCOC(=O)Cn1c2ccccc2c2nc3ccccc3nc21` stands 83%. Turning to `CCN(CC)CCNCCn1c2ccccc2c2nc3ccccc3nc21`, the Activity in the assay on Vaccinia virus [1] is on record as 91%.

Regarding `CN(C)CCNC(=O)Cn1c2ccccc2c2nc3ccccc3nc21`, the Activity in the assay with Vaccinia virus [1] is on record as 59%. For `O=C(Cn1c2ccccc2c2nc3ccccc3nc21)NCCCN1CCOCC1`, the Activity in the assay with Vaccinia virus [1] came to 83%. Take `COC(=O)CN1CCN(CCN2C(=O)c3cccc4cccc(c34)C2=O)CC1`: the Activity with Vaccinia virus [1] worked out at 77%.
